Data on 14 compounds can be found in patent US12441768B2, “Compositions and methods for treating endometriosis” (EndoMet Biosciences, Inc., priority 2018, dated 2025).

Where a SMILES comes first, the peptide text is derived from it. Some results are limits rather than exact numbers.

The conditions of series [1]: % Viability non-Wnt responsive cells.
Series [2] deals with T1, β-catenin (Homo sapiens, UniProt P35222).
T1 sequence (P35222 1-781): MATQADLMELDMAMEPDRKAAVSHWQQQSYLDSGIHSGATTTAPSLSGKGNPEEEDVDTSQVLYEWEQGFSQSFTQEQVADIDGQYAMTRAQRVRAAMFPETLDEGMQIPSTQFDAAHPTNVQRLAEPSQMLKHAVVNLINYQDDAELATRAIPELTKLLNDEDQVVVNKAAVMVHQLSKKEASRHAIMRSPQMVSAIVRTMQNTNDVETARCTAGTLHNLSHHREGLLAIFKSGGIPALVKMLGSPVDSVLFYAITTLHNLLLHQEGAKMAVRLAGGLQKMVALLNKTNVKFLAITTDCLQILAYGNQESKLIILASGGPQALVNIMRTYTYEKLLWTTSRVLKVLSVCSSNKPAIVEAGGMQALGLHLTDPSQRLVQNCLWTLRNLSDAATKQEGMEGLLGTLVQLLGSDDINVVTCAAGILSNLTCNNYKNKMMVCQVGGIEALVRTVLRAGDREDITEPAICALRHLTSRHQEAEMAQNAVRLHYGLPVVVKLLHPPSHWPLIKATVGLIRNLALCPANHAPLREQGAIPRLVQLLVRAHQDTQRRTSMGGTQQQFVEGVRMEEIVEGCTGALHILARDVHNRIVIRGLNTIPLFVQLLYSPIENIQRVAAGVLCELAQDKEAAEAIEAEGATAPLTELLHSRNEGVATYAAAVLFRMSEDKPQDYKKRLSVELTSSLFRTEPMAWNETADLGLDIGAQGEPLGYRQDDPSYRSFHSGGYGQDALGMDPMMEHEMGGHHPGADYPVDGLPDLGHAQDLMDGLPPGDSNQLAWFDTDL
In words: KD50 measurement using competitive fluorescence polarization (FP) with labelled TCF4. The settings on record: fluorescence polarization, β-catenin; for Kd: read-out: β-Cat FP KD. Type of series: binding. The procedure, abridged:
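Labelled TCF4 (5 nM) mixed with 100 nM β-catenin at room temperature; inhibitor added as serial dilutions from 10 nM to 30 uM. Polarization read at excitation 470 nm/emission 520 nm; binding displacement lowers polarization. Three independent runs.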
On the technique in general: Fluorescence polarisation rises when a labelled molecule tumbles more slowly, as on binding a larger partner.

Series [3] deals with Wnt-responsive promoter (TCF/LEF). Put plainly: Wnt-dependent luciferase reporter assay. It counts as cell-based, murine. In a few lines:
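EC50 (uM) derived from inhibition of luminescence in Wnt3a-stimulated murine 3T3 cells expressing luciferase under a TCF/LEF promoter, with peptides added across a concentration range and vehicle as control.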
In general terms: Reporter assays use an easily measured gene product as a stand-in for the process of interest.

For orientation: viability means a read-out of living cells in per cent, often relative to untreated cells. A word on the Kd: it is the concentration at which binding is half-saturated. Usually EC50 stands for the concentration at which the effect is half-maximal. Lower therefore signals an effect from little substance. `CC[C@H](C)[C@H](NC(=O)[C@H](CC(C)C)NC(=O)[C@H](Cc1ccccc1)NC(=O)[C@H](Cc1c[nH]c2ccccc12)NC(=O)[C@H](CCSC)NC(=O)[C@H](CCCNC(=N)N)NC(=O)[C@@H](NC(=O)[C@@H](N)CCSC)[C@@H](C)CC)C(=O)N[C@@H](CS)C(=O)N[C@@H](C)C(=O)N[C@@H](Cc1c[nH]c2ccccc12)C(=O)NCC(=O)O` [compound 166] (H-MIRMWFLICAWG-OH): in series [1], the viability was found to be 100%. In addition, the Kd in series [2] was over 30 µM. In series [3], this compound displayed a concentration for a half-maximal effect (EC50) of over 30 µM.

For the compound `CC[C@H](C)[C@@H]1NC(=O)[C@H](CC(C)C)NC(=O)[C@H](Cc2ccccc2)NC(=O)[C@H](Cc2c[nH]c3ccccc23)NC(=O)[C@H](CCSC)NC(=O)[C@@H](N)CCCCNC(=O)C[C@@H](C(=O)O)NC(=O)[C@H](Cc2c[nH]c3ccccc23)NC(=O)[C@H](C)NC(=O)[C@H](CS)NC1=O` [compound 167] (HELM PEPTIDE1{K.M.W.F.L.I.C.A.W.D}$PEPTIDE1,PEPTIDE1,1:R3-10:R3$$$V2.0), the viability in series [1] was 98.8%. Besides, in series [2], the “β-Cat FP Hill slope” value worked out at 0.7 and the dissociation constant Kd lay within 1 to 10 µM. The compound further registered a half-maximal effective concentration (EC50) in series [3] of 7.5 to 15 µM.

With `CC[C@H](C)[C@@H]1NC(=O)[C@H](CC(C)C)NC(=O)[C@H](Cc2ccccc2)NC(=O)[C@H](Cc2c[nH]c3ccccc23)NC(=O)[C@@H](N)CCCCNC(=O)C[C@@H](C(=O)O)NC(=O)[C@H](Cc2c[nH]c3ccccc23)NC(=O)[C@H](C)NC(=O)[C@H](CS)NC1=O` [compound 168] (HELM PEPTIDE1{K.W.F.L.I.C.A.W.D}$PEPTIDE1,PEPTIDE1,1:R3-9:R3$$$V2.0), the viability in series [1] was 99.1%. Moreover, in series [2], the “β-Cat FP Hill slope” value came out at 0.7 and the dissociation constant (Kd) was 1 to 10 µM. This compound gave a half-maximal effective concentration (EC50) in series [3] of under 7.5 µM.

`CC[C@H](C)[C@@H]1NC(=O)[C@H](CC(C)C)NC(=O)[C@H](Cc2ccccc2)NC(=O)[C@H](Cc2c[nH]c3ccccc23)NC(=O)[C@@H](NC(C)=O)CCCCNC(=O)C[C@@H](C(=O)O)NC(=O)[C@H](Cc2c[nH]c3ccccc23)NC(=O)[C@H](C)NC(=O)[C@H](CS)NC1=O` [compound 169] (HELM PEPTIDE1{[ac].K.W.F.L.I.C.A.W.D}$PEPTIDE1,PEPTIDE1,2:R3-10:R3$$$V2.0): the viability in series [1] worked out at 93.5%. In addition, in series [2], the “β-Cat FP Hill slope” value is reported as 0.7 and the dissociation constant (Kd) lay within 1 to 10 µM. Further, the EC50 in series [3] is under 7.5 µM.

In the case of `CC[C@H](C)[C@@H]1NC(=O)[C@H](CC(C)C)NC(=O)[C@H](Cc2ccccc2)NC(=O)[C@H](Cc2c[nH]c3ccccc23)NC(=O)[C@H](CCSC)NC(=O)[C@@H](N)CCCCNC(=O)C[C@@H](C(=O)O)NC(=O)[C@H](Cc2c[nH]c3ccccc23)NC(=O)[C@H](Cc2ccccc2)NC(=O)[C@H](CS)NC1=O` [compound 170] (HELM PEPTIDE1{K.M.W.F.L.I.C.F.W.D}$PEPTIDE1,PEPTIDE1,1:R3-10:R3$$$V2.0), in series [1], the viability came to 107%. Moreover, in series [2], the “β-Cat FP Hill slope” value was 0.7 and the dissociation constant (Kd) lay in the range of 1 to 10 µM. This compound yielded a 50% effective concentration (EC50) in series [3] of 15 to 22.5 µM.

Consider `CC[C@H](C)[C@@H]1NC(=O)[C@H](CC(C)C)NC(=O)[C@H](Cc2ccccc2)NC(=O)[C@H](Cc2c[nH]c3ccccc23)NC(=O)[C@H](CCSC)NC(=O)[C@@H](N)CCCCNC(=O)C[C@@H](C(=O)O)NC(=O)[C@H](Cc2c[nH]c3ccccc23)NC(=O)[C@H](Cc2ccccc2)NC(=O)[C@H](CO)NC1=O` [compound 171] (HELM PEPTIDE1{K.M.W.F.L.I.S.F.W.D}$PEPTIDE1,PEPTIDE1,1:R3-10:R3$$$V2.0), for which the viability in series [1] was 79.6%. In series [2], the “β-Cat FP Hill slope” value was found to be 0.7 and the Kd was in the range of 1 to 10 µM. The 50% effective concentration (EC50) in series [3] was under 7.5 µM.

On to `CC[C@H](C)[C@@H]1NC(=O)[C@H](CC(C)C)NC(=O)[C@H](Cc2ccccc2)NC(=O)[C@H](Cc2c[nH]c3ccccc23)NC(=O)[C@@H](N)CCCCNC(=O)C[C@@H](C(=O)O)NC(=O)[C@H](Cc2c[nH]c3ccccc23)NC(=O)[C@H](Cc2ccccc2)NC(=O)[C@H](CS)NC1=O` [compound 172] (HELM PEPTIDE1{K.W.F.L.I.C.F.W.D}$PEPTIDE1,PEPTIDE1,1:R3-9:R3$$$V2.0), for which, in series [1], the viability was 90.8%. Also, in series [2], the “β-Cat FP Hill slope” value was 0.7 and the equilibrium dissociation constant (Kd) is 1 to 10 µM. Moreover, the EC50 in series [3] is under 7.5 µM.

For `CC[C@H](C)[C@@H]1NC(=O)[C@H](CC(C)C)NC(=O)[C@H](Cc2ccccc2)NC(=O)[C@H](Cc2c[nH]c3ccccc23)NC(=O)[C@@H](N)CCCCNC(=O)CC[C@@H](C(=O)N[C@@H](Cc2c[nH]c3ccccc23)C(=O)NCC(=O)O)NC(=O)[C@H](CS)NC1=O` [compound 173] (HELM PEPTIDE1{K.W.F.L.I.C.E.W.G}$PEPTIDE1,PEPTIDE1,1:R3-7:R3$$$V2.0), the viability in series [1] was found to be 107%. In addition, the “β-Cat FP Hill slope” value in series [2] amounted to 0.7. This compound also gave a concentration giving a half-maximal response (EC50) in series [3] of over 30 µM.

Consider `CC[C@H](C)[C@@H]1NC(=O)[C@H](CC(C)C)NC(=O)[C@H](Cc2ccccc2)NC(=O)[C@H](Cc2c[nH]c3ccccc23)NC(=O)[C@@H](N)CCCCNC(=O)CNC(=O)CC[C@@H](C(=O)NCC(=O)O)NC(=O)[C@H](Cc2c[nH]c3ccccc23)NC(=O)[C@H](Cc2ccccc2)NC(=O)[C@H](CS)NC1=O` [compound 174] (HELM PEPTIDE1{K.W.F.L.I.C.F.W.E.G}|CHEM1{[O=C(CN[*:2])[*:1]]}$PEPTIDE1,CHEM1,1:R3-1:R1|PEPTIDE1,CHEM1,9:R3-1:R2$$$V2.0), for which the viability in series [1] stood at 102%. Moreover, in series [2], the “β-Cat FP Hill slope” value was 0.7 and the dissociation constant (Kd) fell in the range of 1 to 10 µM. Also, in series [3], the EC50 is 7.5 to 15 µM.

Turning to `CC[C@H](C)[C@@H]1NC(=O)[C@H](CC(C)C)NC(=O)[C@H](Cc2ccccc2)NC(=O)[C@H](Cc2c[nH]c3ccccc23)NC(=O)[C@@H](NC(C)=O)CC(=O)NCCCC[C@@H](C(=O)NCC(=O)O)NC(=O)[C@H](Cc2c[nH]c3ccccc23)NC(=O)[C@H](Cc2ccccc2)NC(=O)[C@H](CS)NC1=O` [compound 175] (HELM PEPTIDE1{[ac].D.W.F.L.I.C.F.W.K.G}$PEPTIDE1,PEPTIDE1,2:R3-10:R3$$$V2.0), the viability in series [1] was 100%. Further, in series [2], the “β-Cat FP Hill slope” value worked out at 0.7 and the Kd lay in the range of 10 to 30 µM. This compound also displayed an EC50 in series [3] of 7.5 to 15 µM.

Regarding `CC[C@H](C)[C@@H]1NC(=O)[C@H](CC(C)C)NC(=O)[C@H](Cc2ccccc2)NC(=O)[C@H](Cc2c[nH]c3ccccc23)NC(=O)[C@@H](N)CC(=O)NCCCC[C@@H](C(=O)NCC(=O)O)NC(=O)[C@H](Cc2c[nH]c3ccccc23)NC(=O)[C@H](Cc2ccccc2)NC(=O)[C@H](CS)NC1=O` [compound 176] (HELM PEPTIDE1{D.W.F.L.I.C.F.W.K.G}$PEPTIDE1,PEPTIDE1,1:R3-9:R3$$$V2.0), the viability in series [1] worked out at 109%. In series [2], the “β-Cat FP Hill slope” value was determined as 0.85 and the equilibrium dissociation constant (Kd) was in the range of 10 to 30 µM. In series [3], the concentration for a half-maximal effect (EC50) was in the range of 7.5 to 15 µM.

Regarding `CC[C@H](C)[C@@H]1NC(=O)[C@H](CC(C)C)NC(=O)[C@H](Cc2ccccc2)NC(=O)[C@H](Cc2c[nH]c3ccccc23)NC(=O)[C@H](CCSC)NC(=O)[C@@H](N)CC(=O)NCCCC[C@@H](C(=O)NCC(=O)O)NC(=O)[C@H](Cc2c[nH]c3ccccc23)NC(=O)[C@H](Cc2ccccc2)NC(=O)[C@H](CS)NC1=O` [compound 177] (HELM PEPTIDE1{D.M.W.F.L.I.C.F.W.K.G}$PEPTIDE1,PEPTIDE1,1:R3-10:R3$$$V2.0), the viability in series [1] was found to be 98.6%. Moreover, the dissociation constant (Kd) in series [2] was over 30 µM. In addition, in series [3], the EC50 was in the range of 7.5 to 15 µM.

Consider `CC[C@H](C)[C@@H]1NC(=O)[C@H](CC(C)C)NC(=O)[C@H](Cc2ccccc2)NC(=O)[C@H](Cc2c[nH]c3ccccc23)NC(=O)[C@@H](N)CC(=O)NCCCC[C@@H](C(=O)NCC(=O)O)NC(=O)[C@H](Cc2c[nH]c3ccccc23)NC(=O)[C@H](C)NC(=O)[C@H](CS)NC1=O` [compound 178] (HELM PEPTIDE1{D.W.F.L.I.C.A.W.K.G}$PEPTIDE1,PEPTIDE1,1:R3-9:R3$$$V2.0), for which, in series [1], the viability amounted to 91.8%. Moreover, in series [2], the dissociation constant (Kd) was over 30 µM. For the same compound, the 50% effective concentration (EC50) in series [3] was under 7.5 µM.

With `CC[C@H](C)[C@@H]1NC(=O)[C@H](CC(C)C)NC(=O)[C@H](Cc2ccccc2)NC(=O)[C@H](Cc2c[nH]c3ccccc23)NC(=O)[C@@H](N)CCCCNC(=O)CC[C@@H](C(=O)O)NC(=O)[C@H](Cc2c[nH]c3ccccc23)NC(=O)[C@H](Cc2ccccc2)NC(=O)[C@H](CS)NC1=O` [compound 179] (HELM PEPTIDE1{K.W.F.L.I.C.F.W.E}$PEPTIDE1,PEPTIDE1,1:R3-9:R3$$$V2.0), in series [1], the viability amounted to 90.9%. Also, in series [2], the “β-Cat FP Hill slope” value was 1.01 and the dissociation constant (Kd) was 1 to 10 µM. Besides, in series [3], the EC50 was under 7.5 µM.
